In paper PMC12376128, “In vitro and In Vivo Drug Metabolism Analysis of BPI-460372 - A Covalent TEAD1/3/4 Inhibitor” (Current Drug Metabolism, 2025):

Key:
[1] = Metabolite identification in rat plasma, urine, feces and bile; assay type: in vivo, SD rats; conditions: for Relative abundance of MS peak areas, Rat Bile 0-48 h / Relative abundance of MS peak areas, Rat Feces 0-48 h / Relative abundance of MS peak areas, Rat Urine 0-48 h: oral 6 mg/kg BPI-460372, average of male and female pooled samples; for Relative abundance of MS peak areas, Rat Plasma 0-24 h: oral 12 mg/kg BPI-460372, average of male and female pooled samples
Experimental: The plasma samples were acquired from SD rats (n=6, 3 female and 3 male) and beagle dogs (n=6, 3 female and 3 male) after administration of 12 mg/kg and 8 mg/kg of BPI-460372, respectively. The rat urine, feces, and bile samples were acquired in SD rats after administration of 6 mg/kg of BPI-460372.
Equal volume from each rat was pooled together to get 1 male and 1 female 0-24 h plasma samples. An equal percentage by volume of individual urine sample (0-8, 8-24, and 24-48 h) from 3 female and 3 male rats was pooled by time interval across rats, respectively, resulting in two pooled urine samples (1 male and 1 female). An equal percentage by weight of individual feces samples (0-8, 8-24, and 24-48 h) was pooled by time interval across female and male rats, resulting in two pooled fecal samples. An equal percentage by volume of individual bile samples (0-4, 4-8, 8-24, and 24-48 h) was pooled by time interval across female and male rats, resulting in two pooled bile samples. […] Equal volumes from 3 female and 3 male rats were pooled together to get two 0-48 h plasma samples. For blank samples of plasma, urine, and bile, equal volume was pooled across subjects. For a blank sample of feces, equal weight was pooled across rats.
The pooled plasma, feces, and bile samples were extracted by adding 3-fold volume of acetonitrile, and the mixture was vortexed (1 min) and sonicated (1 min) before centrifugation (7220 g, 5 min). The pooled urine samples were centrifuged (7220 g, 5 min). Then the supernatant was transferred into a clean tube and evaporated to dryness under the nitrogen stream. The residues were redissolved with an appropriate volume of acetonitrile/water (20: 80, v: v). After centrifugation, the redissolved solution was transferred into an HPLC vial for UHPLC-Orbitrap-HRMS (15000 g, 10 min, 4°C).

[2] = system: cysteine S-conjugate β-lyase; assay: Effect of cysteine S-conjugate β-lyase inhibitor AOAA on the metabolism of BPI-460372 (rat urine); conditions: for Area ratio in rat urine, mean (%CV): 20 mg/kg BPI-460372 + 100 mg/kg AOAA, once daily 21 days, urine 0-48 h on day 21; for Change of area ratio in rat urine on coadministration with AOAA: 20 mg/kg BPI-460372 with versus without 100 mg/kg AOAA
Experimental: To investigate the effect of cysteine S-conjugate β-lyase on the metabolism of BPI-460372, SD rats were treated with 20 mg/kg BPI-460372 alone (n=3, male) or 20 mg/kg BPI-460372 coadministration with 100 mg/kg cysteine S-conjugate β-lyase inhibitor AOAA (n=3, male), once daily for 21 consecutive days. On day 21, urine samples were collected at 0-8, 8-24 and 24-48 h. The same percentage of urine samples from each rat was taken at these three time intervals and mixed. The samples were analyzed by LC-MS/MS and then semi-quantified using the peak area ratio of analyte versus IS.

mouse hepatocytes [3] = assay: Metabolism and metabolite formation in hepatocytes; assay type: in vitro ADME, ICR mouse; conditions: ICR mouse hepatocytes, 10 µM BPI-460372, 4 h incubation
Excerpt: (§1) All the samples were duplicates.

dog hepatocytes [4] = assay: Metabolism and metabolite formation in hepatocytes; assay type: in vitro ADME, beagle dog; conditions: beagle dog hepatocytes, 10 µM BPI-460372, 4 h incubation
Excerpt: as §1

human hepatocytes [5] = assay: Metabolism and metabolite formation in hepatocytes; conditions: human hepatocytes, 10 µM BPI-460372, 4 h incubation
Experimental: 10 µM BPI-460372 was incubated in five species (human, cynomolgus monkey, beagle dog, SD rat, and ICR mouse) hepatocytes (1 × 10^6 cells·min^-1) at 37 °C for 4 h. 7-EC, as positive control, was incubated for 0 h and 4 h. For blank control, hepatocytes were inactivated by adding ice-cold acetonitrile, and then the BPI-460372 solution was added. All the samples were duplicates. Incubations were stopped using the same volume of cold acetonitrile. The tube was vortexed, and the duplicate samples were combined. Metabolite profiling and identification of BPI-460372 were conducted by using UHPLC-Orbitrap-HRMS. The samples of 7-EC were analyzed by LC-MS/MS and then semi-quantified using the peak area ratio of analyte versus IS.
For hepatocyte metabolite identification, the different metabolites of BPI-460372 were detected using an ACQUITY UPLC HSS T3 column (1.8 µm, 100 mm × 2.1 mm) and ACQUITY UPLC BEH C18 column (1.7 µm, 100 mm × 2.1 mm) for rat and dog metabolite identification. The mobile phase contained a mixture of 0.1% formic acid in water (A) and 0.1% formic acid in acetonitrile (B). The gradient elution program was as follows: 0.0-1.0 min, 5% B; 1.0-7.0 min, 5%-30% B; 7.0-12.0 min, 30%-80% B; 12.0-16.0 min, 80%-95% B; 16.0-18.0 min, 95% B; 18.0-18.1 min, 95%-5% B. Then, 5% B from 18.1 to 20.0 min was maintained for equilibration. The flow rate was set to 0.5 mL/min, and the column temperature was kept at 40°C. Eluted fractions were monitored by a UV detector at 314 nm.

rat hepatocytes [6] = assay: Metabolism and metabolite formation in hepatocytes; assay type: in vitro ADME, SD rat; conditions: SD rat hepatocytes, 10 µM BPI-460372, 4 h incubation
Excerpt: as §1

monkey hepatocytes [7] = assay: Metabolism and metabolite formation in hepatocytes; assay type: in vitro ADME, cynomolgus monkey; conditions: cynomolgus monkey hepatocytes, 10 µM BPI-460372, 4 h incubation
Excerpt: as §1

rat hepatocytes [8] = assay: Metabolic stability in hepatocytes; conditions: rat hepatocytes
Experimental: (§2) After mixing, 20 μL of cell suspension was serially transferred into 200 μL of cold acetonitrile containing IS at the time points of 0, 5, 15, 30, 60, and 120 min, respectively.
(§3) The metabolic stability was assessed by measuring the depletion of substrate. The half-life (t1/2), intrinsic clearance (CLint, in virto, µL·min^-1·million cells^-1), whole liver intrinsic clearance (CLint, in vivo, mL·min-1·kg^-1), and in vivo hepatic clearance (CLH, mL·min-1·kg^-1) were calculated following a reported method. In the calculation of CLH, the fraction drug unbound (Fub) was set as 1. The hepatic blood flow, liver weight, and hepatocellularity of five species were used for the calculation of CLint, in vivo [13, 14]. The hepatic extraction ratio (Eh) means the ratio of CLH to hepatic blood flow.

dog hepatocytes [9] = assay: Metabolic stability in hepatocytes; conditions: dog hepatocytes
Experimental: as §2, §3

[10] = Metabolic stability in hepatocytes; conditions: hepatocytes
Experimental: as §2, §3

monkey hepatocytes [11] = assay: Metabolic stability in hepatocytes; conditions: monkey hepatocytes
Experimental: as §2, §3

human hepatocytes [12] = assay: Metabolic stability in hepatocytes; conditions: human hepatocytes
Experimental: as §2, §3

mouse hepatocytes [13] = assay: Metabolic stability in hepatocytes; conditions: mouse hepatocytes
Experimental: as §2, §3

NC(CSCC(O)C(=O)N1CC(n2c(=O)n(-c3ccc(C(F)(F)F)cc3)c3cncnc32)C1)C(=O)O (centres unmarked) [M526]
Relative abundance of MS peak areas, Rat Bile 0-48 h [1]: 1.52%

CC(=O)NC(CSCCC(=O)N1CC(n2c(=O)n(-c3ccc(C(F)(F)F)cc3)c3cncnc32)C1)C(=O)O (centres unmarked) [M552]
Relative abundance of MS peak areas, Rat Bile 0-48 h [1]: 0.56% | Relative abundance of MS peak areas, Rat Feces 0-48 h [1]: 1.65% | Relative abundance of MS peak areas, Rat Urine 0-48 h [1]: 6.73% | Relative abundance of MS peak areas, Rat Plasma 0-24 h [1]: 0.015%

CC(=O)NC(CSCC(O)C(=O)N1CC(n2c(=O)n(-c3ccc(C(F)(F)F)cc3)c3cncnc32)C1)C(=O)O (centres unmarked) [M568]
Area ratio in rat urine, mean (%CV) [2]: 0.06 (20) | Change of area ratio in rat urine on coadministration with AOAA [2]: reduced | Relative abundance of MS peak areas, Rat Bile 0-48 h [1]: 3.22% | Relative abundance of MS peak areas, Rat Feces 0-48 h [1]: 0.45% | Relative abundance of MS peak areas, Rat Urine 0-48 h [1]: 1.80%

CC(=O)NC(CSCC(F)C(=O)N1CC(n2c(=O)n(-c3ccc(C(F)(F)F)cc3)c3nccnc32)C1)C(=O)O (centres unmarked) [M570]
UV (314 nm) Peak Areas Relative Abundance (mouse hepatocytes [3]): 3.57% | Area ratio in rat urine, mean (%CV) [2]: 0.08 (40) | Change of area ratio in rat urine on coadministration with AOAA [2]: reduced | UV (314 nm) Peak Areas Relative Abundance (dog hepatocytes [4]): 2.44% | UV (314 nm) Peak Areas Relative Abundance (human hepatocytes [5]): 1.48% | UV (314 nm) Peak Areas Relative Abundance (rat hepatocytes [6]): 2.6% | Relative abundance of MS peak areas, Rat Bile 0-48 h [1]: 45.40% | Relative abundance of MS peak areas, Rat Feces 0-48 h [1]: 3.96% | Relative abundance of MS peak areas, Rat Urine 0-48 h [1]: 34.25% | Relative abundance of MS peak areas, Rat Plasma 0-24 h [1]: 0.12%

NC(CCC(=O)NC(CSCC(O)C(=O)N1CC(n2c(=O)n(-c3ccc(C(F)(F)F)cc3)c3nccnc32)C1)C(=O)NCC(=O)O)C(=O)O (centres unmarked) [M712]
UV (314 nm) Peak Areas Relative Abundance (mouse hepatocytes [3]): 1.43% | UV (314 nm) Peak Areas Relative Abundance (dog hepatocytes [4]): + | UV (314 nm) Peak Areas Relative Abundance (monkey hepatocytes [7]): + | UV (314 nm) Peak Areas Relative Abundance (human hepatocytes [5]): + | UV (314 nm) Peak Areas Relative Abundance (rat hepatocytes [6]): + | Relative abundance of MS peak areas, Rat Bile 0-48 h [1]: 0.10%

NC(CCC(=O)NC(CSCC(F)C(=O)N1CC(n2c(=O)n(-c3ccc(C(F)(F)F)cc3)c3nccnc32)C1)C(=O)NCC(=O)O)C(=O)O (centres unmarked) [M714]
UV (314 nm) Peak Areas Relative Abundance (mouse hepatocytes [3]): 24.76% | UV (314 nm) Peak Areas Relative Abundance (dog hepatocytes [4]): 22.65% | UV (314 nm) Peak Areas Relative Abundance (monkey hepatocytes [7]): 3.01% | UV (314 nm) Peak Areas Relative Abundance (human hepatocytes [5]): 3.01% | UV (314 nm) Peak Areas Relative Abundance (rat hepatocytes [6]): 18.4% | Relative abundance of MS peak areas, Rat Bile 0-48 h [1]: 3.27%

C[C@]12CC[C@H]3[C@@H](CCC4=CC(=O)CC[C@@]43C)[C@@H]1CC[C@@H]2O [Testosterone, testosterone]
CLH (rat hepatocytes [8]; Fub set as 1): 44.6 mL/min/kg | CLint, in vivo (rat hepatocytes [8]; scaled to whole liver): 233.5 mL/min/kg | CLint, in virto (dog hepatocytes [9]; 1 µM): 49.1 µL·min^-1·Million cells^-1 | CLH (dog hepatocytes [9]; Fub set as 1): 28.3 mL/min/kg | CLint, in vivo (dog hepatocytes [9]; scaled to whole liver): 337.8 mL/min/kg | half-life at 1 µM ([10]; ICR, mouse): 14.9 min | half-life at 1 µM ([10]; SD, rat): 13.9 min | half-life at 1 µM ([10]; beagle, dog): 14.1 min | half-life at 1 µM ([10]; human): 13.3 min | half-life at 1 µM ([10]; monkey): 11.5 min | CLH (monkey hepatocytes [11]; Fub set as 1): 36.6 mL/min/kg | CLint, in vivo (monkey hepatocytes [11]; scaled to whole liver): 217.3 mL/min/kg | CLint, in virto (human hepatocytes [12]; 1 µM): 52.2 µL·min^-1·Million cells^-1 | CLH (human hepatocytes [12]; Fub set as 1): 18.7 mL/min/kg | CLint, in vivo (human hepatocytes [12]; scaled to whole liver): 188.7 mL/min/kg | CLint, in virto (mouse hepatocytes [13]; 1 µM): 46.6 µL·min^-1·Million cells^-1 | CLH (mouse hepatocytes [13]; Fub set as 1): 77.4 mL/min/kg | CLint, in vivo (mouse hepatocytes [13]; scaled to whole liver): 554.1 mL/min/kg
